Earlier results, collected in patent US20100209350A1, “Biomarkers for Adipose Tissue Activity” (priority 2008, published 2010).

Tested on: adiponectin
Conditions: patient responding to the therapy; sample such as blood; general statement, no study described

## CN(C)C(=N)N=C(N)N [metformin]
  increase of adiponectin level from a reference value: about 20%
